{"source": "patent US20260240817A1", "about": "“COMPOSITIONS AND METHODS FOR TREATING CHARCOT-MARIE-TOOTH DISEASE” (priority 2023, published 2026)", "key": {"WT mice": {"test_system": "WT mice", "assay": "In situ force and CMAP of triceps surae on sciatic nerve stimulation, wild type", "format": "in vivo, mouse", "from_the_text": "(§1) Mice were removed from their housing on the day of experiment and sedated with isoflurane (2-3%) dissolved in oxygen (supplied in a mask placed around the mouth and nose (Microvent 1, Hallowell EMC)) and placed on a heated mat. Sedation was ensured by testing the reflexes of the front limbs by tweezing them with a set of tweezers. Temperature was monitored by rectal probe. When fully sedated the Achilles tendon was blotted, tied by cotton string to a force transducer (Grass instruments) and cut distal to the cotton string, to allow recording of force from muscle of the lower limb. To record compound muscle action potentials (CMAP), two small needle electrodes were placed subcutaneously, one over the belly of the triceps surae muscle, and one at the distal part close to the tendon. To allow stimulation of the sciatic nerve, two stimulation needle electrodes were inserted at the base of the tail, one on each side of the sciatic nerve. Optimal placement was tested by applying short pulses via the stimulation electrodes, and assessing the resulting force and CMAP. When a stable response was obtained, electrodes were secured with tape, and the animal was allowed to rest for 10 minutes.\n(§2) After optimal set-up and rest, the following stimulation paradigm was initiated: Every 30 seconds the sciatic nerve was stimulated at 8-12 Volt by pulses of 0.1 ms duration at 12 Hz with 10 pulses (12 Hz protocol). This was repeated 9 times after which a single stimulation at 120 Hz for 1 s was made. The 12 Hz protocol was then again repeated 9 times followed a stimulation at 30 Hz for 1 s. This cycle was repeated throughout the experiments providing recordings of force and CMAP at 120 Hz and 30 Hz every 10th minute interspaced by 12 Hz protocols every 30 second. When 3 consecutive measurements of 120 Hz were similar, NMD670 was administered I.V. (8 mg/kg dissolved in phosphate buffered saline at 2 mg/mL), while the stimulation paradigm continued. Animals were monitored for 6 hours after injection of NMD670. Force and CMAP were measured and digitalized by an AD converter (CED, UK,) and analysed in “Signal 6” (Cambridge Electronic Designs, UK). When analysing force traces, the peak amplitude of each twitch peak at 12 and 30 Hz was measured, and the baseline subtracted. The force at 30 and 120 Hz was also quantified as a force-time integral, or area under the curve (AUC). The CMAP recordings were quantified as the peak-to-peak levels for each CMAP in every train. The peak heights or CMAP levels were then expressed as ratios relative to the first CMAP peak in the train e.g. forth peak relative to 1st peak (T4/T1) and 10th peak relative to 1st peak (T10/T1)."}, "healthy volunteers": {"test_system": "healthy volunteers", "assay": "Phase I (FIH) clinical trial, safety and tolerability in healthy volunteers", "format": "in vivo, human", "from_the_text": "Part A1 tested single doses of NMD670 in a double-blind, randomised, placebo-controlled, partial crossover and dose-escalating design in healthy male subjects (see the WHO International Clinicals Trials Registry Platform study reference NL8692). A total of nine dose levels were investigated in three cohorts of subjects. Each cohort consisted of nine subjects, each subject had three study sessions. Each subject received escalating doses of NMD670 on two occasions and placebo on one occasion, the order will be randomized in a cross-over fashion. Each dose level was randomized in a 6:3 ratio (active vs. placebo). See Table 10 for an overview of the randomization scheme.\nDue to this temporary halt and partial unblinding of the study during dose level 7, a new randomization was necessary. After unblinding three subjects in dose level 7, the original randomization for dose 8 and 9 was changed in order to keep the study blinded. […] Therefore, for the remaining 2 doses, a full cross-over design investigating one previously tested dose level was used. The 9 subjects in cohort 3 were randomized to receive the study drug in level 8 and placebo in level 9, or vice versa. To determine the effect of food on the exposure of single oral doses of NMD670, dose level 5 was administered in both the fasted and fed condition. Subjects who received dose level 5 returned for a fourth visit in which they received dose level 5 (or matching placebo) in the fed condition, in the same randomization as the chosen dose level in the fasted condition.\nPart A2 of the study investigated the safety, tolerability and pharmacokinetics of NMD670 in 8 healthy female subjects of non-childbearing potential, in a randomized, double-blind, placebo-controlled single dose administration of NMD670. Subjects received 800 mg NMD670. Subjects were randomized in a 6:2 ratio (active vs. placebo).\nThe following endpoints were determined at time points indicated in the Schedule of Assessments. • Serious adverse events (SAEs) and adverse events (AEs) were collected throughout the study at every study visit. • Concomitant medication • Clinical laboratory tests • Haematology • Chemistry • Urinalysis • Coagulation • Vital signs • Pulse Rate (bpm) • Systolic blood pressure (mmHg) • Diastolic blood pressure (mmHg) • Respiratory rate • ECG • Heart Rate (HR) (bpm), PR, QRS, QT, QTcF • 24-hour Holter recording • Hand grip dynamometry • Grip release profile; time profile from 100% maximum voluntary contraction (MVC) to 5% of the 100% MVC\nNMD670 has been tested in a Phase 1, FIH, single ascending and multiple ascending dose study in healthy volunteers. […] In addition, the Phase 1 FIH study also tested single doses of 400 mg and 1200 mg in 12 MG patients."}, "CMT2D Gars^P278KY mice": {"test_system": "CMT2D Gars^P278KY mice", "assay": "In situ force and CMAP of triceps surae on sciatic nerve stimulation, CMT2D model", "format": "in vivo, mouse", "description": "CMT2D Gars^P278KY mice (Jackson laboratories, stock 17540) were used (Spauling et al. 2016). All handling and use of animals complied with Danish Animal Welfare regulations (licence 2017-15-0201-01223). Animals were fed ad libitum, kept at 12 h light/dark condition at 21° C. and observed daily.\nas §1\nThe single fibre measurements of EPP was performed in animals aged 8 to 15 weeks, whilst the in situ stimulation protocol part was performed in animals 37 weeks of age, from the same litter.\nas §2"}, "[1]": {"settings": "Wild Type, after NMD670 (before 100)"}, "[2]": {"settings": "Gars^P278KY mice, after injection of NMD670"}, "[3]": {"settings": "Gars^P278KY mice, after injection of NMD670, not fully normalized"}, "[4]": {"settings": "Gars^P278KY, after 8 mg/kg i.v. (before 100)"}}, "note": "Entries after “also recorded” stand apart in the source; their conditions may differ."}
{"smiles": "C[C@H](Oc1ccc(Br)cc1-c1ccon1)C(=O)O", "note": "[NMD670, (2S)-2-[4-bromo-2-(1,2-oxazol-3-yl)phenoxy]propanoic acid]", "values": [{"measurement": "increase of ratio of the 5th and 1st CMAP peaks", "setting": "WT mice; WT mice after injection of NMD670, 30 and 80 Hz stimulations as printed", "result": "not significantly different"}, {"measurement": "Twitch force relative to BW", "setting": "WT mice; Wild Type, after NMD670 (before 1.08 ± 0.01)", "result": "1.06 ± 0.02"}, {"measurement": "Twitch force", "setting": "WT mice; Wild Type, after NMD670 (before 21.6 ± 1.3)", "result": "22.2 ± 2.3", "unit": "g"}, {"measurement": "Force 12 Hz Ratios T4/T1", "setting": "WT mice; Wild Type, after NMD670 (before 96.6 ± 1.3)", "result": "97.7 ± 06", "unit": "%"}, {"measurement": "Force 12 Hz Ratios T10/T1", "setting": "WT mice; Wild Type, after NMD670 (before 97.3 ± 0.6)", "result": "99.2 ± 0.3", "unit": "%"}, {"measurement": "Force 30 Hz AUC (% of initial)", "setting": "WT mice; [1]", "result": "102.9 ± 1.9 % of initial"}, {"measurement": "Force 120 Hz AUC (% of initial)", "setting": "WT mice; [1]", "result": "100.7 ± 2.7 % of initial"}, {"measurement": "12 Hz Ratios CMAP T4/T1", "setting": "WT mice; Wild Type, after NMD670 (before 102.2 ± 0.9)", "result": "103.1 ± 0.2"}, {"measurement": "12 Hz Ratios CMAP T10/T1", "setting": "WT mice; Wild Type, after NMD670 (before 102.8 ± 0.1)", "result": "102.8 ± 2.2"}, {"measurement": "EMG (CMAP) 30 Hz 5/1", "setting": "WT mice; Wild Type, after NMD670 (before 105.8 ± 3.1)", "result": "119.0 ± 11.6"}, {"measurement": "EMG (CMAP) 120 Hz 5/1", "setting": "WT mice; Wild Type, after NMD670 (before 110.2 ± 6.5)", "result": "123.5 ± 20.6"}, {"measurement": "tolerability of maximum repeated dose", "setting": "healthy volunteers; 400 mg BID, healthy volunteers", "result": "well tolerated"}, {"measurement": "healthy subjects with myotonic symptoms", "setting": "healthy volunteers; 1200 mg once a day, mild in intensity, resolved spontaneously within a few hours", "result": 2}, {"measurement": "adverse event of myotonia, intensity", "setting": "healthy volunteers; 1600 mg single dose, one healthy subject, spontaneously and fully resolved within hours", "result": "moderate in intensity; also recorded: moderate severity"}, {"measurement": "serious or severe adverse effects", "setting": "healthy volunteers; Phase 1, healthy subjects, single doses 50 to 1600 mg", "result": "No serious or severe adverse effects; also recorded: No serious adverse reactions"}, {"measurement": "overall safety and tolerability", "setting": "healthy volunteers; Phase 1 FIH study, TEAE incidence similar between NMD670 and placebo", "result": "safe and well tolerated"}, {"measurement": "subject discontinuations", "setting": "healthy volunteers; Phase 1 Part A", "result": "no subject discontinuations"}, {"measurement": "total AEs reported", "setting": "healthy volunteers; Phase 1 Part A, 35 subjects", "result": 70}, {"measurement": "AEs at least possibly drug related", "setting": "healthy volunteers; Phase 1 Part A, of 70 AEs, number (%)", "result": "47 (67%)"}, {"measurement": "serum uric acid", "setting": "healthy volunteers; Phase 1 clinical study, not considered clinically significant", "result": "dose-dependent decrease"}, {"measurement": "transient myotonia, relation to dose", "setting": "healthy volunteers; single doses, 1200 mg and 1600 mg", "result": "reported at the highest dose levels tested"}, {"measurement": "force, CMAP and relative force peaks (T4 or T10/T1)", "setting": "CMT2D Gars^P278KY mice; Gars^P278KY mice, after 8 mg/kg NMD670 i.v., 12, 30, 120 Hz stimulation", "result": "less decrease in amplitudes; also recorded: improved; also recorded: increase"}, {"measurement": "T4/T1 and T10/T1 ratios of twitch force", "setting": "CMT2D Gars^P278KY mice; [2]", "result": "normalization"}, {"measurement": "increase in absolute twitch force", "setting": "CMT2D Gars^P278KY mice; [2]", "result": 25, "unit": "%"}, {"measurement": "increase of force during 30 Hz stimulation", "setting": "CMT2D Gars^P278KY mice; [3]", "result": 21, "unit": "%"}, {"measurement": "increase of force during 120 Hz stimulation", "setting": "CMT2D Gars^P278KY mice; [3]", "result": 30, "unit": "%"}, {"measurement": "Twitch force", "setting": "CMT2D Gars^P278KY mice; Gars^P278KY, after 8 mg/kg NMD670 i.v. (before 6.06 ± 0.8)", "result": "7.5 ± 1.1", "unit": "g"}, {"measurement": "Twitch force relative to BW", "setting": "CMT2D Gars^P278KY mice; Gars^P278KY, after 8 mg/kg i.v. (before 0.42 ± 0.05)", "result": "0.51 ± 0.05"}, {"measurement": "12 Hz Ratios CMAP T10/T1", "setting": "CMT2D Gars^P278KY mice; Gars^P278KY, after 8 mg/kg i.v. (before 63.5 ± 4.91)", "result": "76.1 ± 4.37"}, {"measurement": "12 Hz Ratios CMAP T4/T1", "setting": "CMT2D Gars^P278KY mice; Gars^P278KY, after 8 mg/kg i.v. (before 75.5 ± 2.8)", "result": "86.3 ± 2.44"}, {"measurement": "Force 12 Hz Ratios T10/T1", "setting": "CMT2D Gars^P278KY mice; Gars^P278KY, after 8 mg/kg i.v. (before 82.0 ± 6.0)", "result": "93.8 ± 5.7", "unit": "%"}, {"measurement": "EMG (CMAP) 30 Hz 5/1", "setting": "CMT2D Gars^P278KY mice; Gars^P278KY, after 8 mg/kg i.v. (before 82.4 ± 3.3)", "result": "95.3 ± 2.4"}, {"measurement": "EMG (CMAP) 120 Hz 5/1", "setting": "CMT2D Gars^P278KY mice; Gars^P278KY, after 8 mg/kg i.v. (before 83.8 ± 13.9)", "result": "102.0 ± 4.3"}, {"measurement": "Force 12 Hz Ratios T4/T1", "setting": "CMT2D Gars^P278KY mice; Gars^P278KY, after 8 mg/kg i.v. (before 88.2 ± 5.1)", "result": "97.8 ± 5.0", "unit": "%"}, {"measurement": "Force 30 Hz AUC (% of initial)", "setting": "CMT2D Gars^P278KY mice; [4]", "result": "124.1 ± 3.7 % of initial"}, {"measurement": "Force 120 Hz AUC (% of initial)", "setting": "CMT2D Gars^P278KY mice; [4]", "result": "136.7 ± 29.9 % of initial"}]}
